Broadly, the IC50 is the point on the concentration scale where inhibition reaches its midpoint.

Data on 11 compounds can be found in patent US8314089B2, “Substituted pyrazolamides and their use” (AiCuris GmbH & Co. KG, priority 2008, dated 2012).

Molecules are shown by their SMILES.

This experiment deals with HIV. Put plainly: HIV infection in cell culture (H9 cells, 2% FCS). In kind it is cell-based. The note with it: Human immunodeficiency virus 1, HIV-infected H9 cells, suppression of 50% of virus-induced syncytia. The procedure:
The HIV test is conducted according to the method of Pauswels et al. [cf. Journal of Virological Methods 1988, 20, 309-321], with modifications.
Primary human blood lymphocytes (PBLs) are enriched using Ficoll-Hypaque and stimulated, in RPMI 1640 medium, 20% fetal calf serum, with phytohemagglutinin (90 μg/ml) and interleukin-2 (40 U/ml). For the infection with the infectious HIV, the PBLs are pelletted and the cell pellet is subsequently suspended in 1 ml of a suitable diluted HIV virus adsorption solution and incubated for 1 hour at 37° C. (pellet infection). Unabsorbed virus is subsequently removed by centrifugation, and the infected cells are transferred to test plates (e.g. 96-well microtiter plates), which contain the test substances in a suitable dilution.
Alternatively, for example HIV-susceptible, permanent H9 cells (ATCC or NIAID, USA) are used instead of normal human blood lymphocytes for testing the antiviral effects of the compounds of the invention. Infected H9 cells are grown for test purposes in RPMI 1640 medium, 2% and/or 20% fetal calf serum.
The virus adsorption solution is centrifuged and the infected cell pellet is taken up in growth medium, so as to give 1×10^5 cells per ml. The cells infected in this way are pipetted at approx. 1×10^4 cells/well into the wells of 96-well microtiter plates (pellet infection). Alternatively the HIV is pipetted in separately only after preparation of the substance dilutions in the microtiter plates and after addition of the cells (supernatant infection).
The first vertical row of the microtiter plate contains only growth medium and cells that are not infected, but are otherwise treated exactly as described above (cell control). The second vertical row of the microtiter plate receives only HIV-infected cells (virus control) in growth medium. The other wells contain the compounds of the invention in various concentrations, starting from the wells of the 3rd vertical row of the microtiter plate, from which the test substances are diluted 2^10-fold in 2-fold steps.
Alternatively, supernatant infections are carried out (see above), in which the cells are sown in 96-well plates. The HIV virus is then added in a volume of 50 μl.
The test preparations are incubated at 37° C., until the formation of syncytia that is typical of HIV occurs in the untreated virus control (between day 3 and 6 after infection), which is then evaluated either microscopically or by p24 ELISA detection methods (Vironostika, BioMerieux, The Netherlands) or photometrically or fluorometrically using Alamar Blue indicator dye.
The IC50 values are determined as the concentration of the test substance at which 50% (approx. 20-100 syncytia) of the virus-induced syncytia are suppressed by the treatment with the compound of the invention. The cut-off values are set correspondingly in the ELISA test and in the photometric or fluorometric determination using Alamar Blue. In addition to determination of the antiviral effects, the treated cell cultures are also investigated microscopically with respect to cytotoxic, cytostatic or cytological changes and with respect to solubility. Active compounds that show cell-altering, cytotoxic findings in the concentration range of the activity are not assessed for their antiviral activity.
In turn, `O=C(c1cc(-c2cccc(OC(F)(F)F)c2)n(-c2cccc(Cl)c2)n1)N1CCOCC1` [Example 4] registered a half-inhibitory concentration (IC50) of 0.05 µM.

For the compound `O=C(c1cc(-c2ccccc2)n(-c2cccc(Cl)c2)n1)N1CCSC1` [Example 34], the IC50 was 0.08 µM.

For `O=C(c1cc(-c2cccc(OC(F)(F)F)c2)n(-c2cccc(Cl)c2)n1)N1CCCOCC1` [Example 5], the IC50 worked out at 0.04 µM.

`N#Cc1cccc(-c2cc(C(=O)N3CCOCC3)nn2-c2cccc(Cl)c2)c1` [Example 32]: it took 0.04 µM to reach half-maximal inhibition (IC50). This counts as double-digit nanomolar.

Consider `O=C(c1cc(-c2cccc(OC(F)(F)F)c2)n(-c2cccc(Cl)c2)n1)N1CCSC1` [Example 6], for which the IC50 was determined as 0.1 µM.

For the compound `O=CN1CCN(C(=O)c2cc(-c3cccc(SC(F)(F)F)c3)n(-c3cccc(Cl)c3)n2)CC1` [Example 15, 4-{[1-(3-Chlorophenyl)-5-(3-trifluoromethylthiophenyl)-1H-pyrazol-3-yl]carbonyl}-piperazine-1-carbaldehyde], half-maximal inhibition (IC50) required 0.15 µM.

In the case of `O=C(c1cc(-c2cccc(C(F)(F)F)c2)n(-c2cccc(Cl)c2)n1)N1CCC(O)C1` (centres unmarked) [Example 2], the half-inhibitory concentration (IC50) stood at 0.05 µM.

In turn, `O=C(c1cc(-c2cccc(C(F)(F)F)c2)n(-c2cccc(Cl)c2)n1)N1CCSC1` [Example 43] registered an IC50 of 0.1 µM.

The compound `O=C(c1cc(-c2cccc(OC(F)(F)F)c2)n(-c2cccc(Cl)c2)n1)N1CC[C@@H](O)C1` [Example 10] displayed a half-maximal inhibitory concentration (IC50) of 0.05 µM.

Turning to `COc1ccc(-c2cc(C(=O)N3CCOCC3)nn2-c2cccc(Cl)c2)cc1OC` [Example 35], the IC50 amounted to 0.1 µM.

As for `O=C(c1cc(-c2ccccc2)n(-c2cccc(Cl)c2)n1)N1CCOCC1` [Example 33], half-maximal inhibition (IC50) was put at 0.05 µM.
